Reference: patent US11485742B2, “2-azaspiro[3.4]octane derivatives as M4 agonists” (NOVARTIS AG, priority 2019, dated 2022)

Tests used:
[1] = target: T1, human cloned CHRM3 receptor (Homo sapiens, UniProt P20309); assay: CHRM3 Ca++ Flux Assay (M3_CHO cells, agonist mode); format: cell-based; conditions: for Emax: Percent Activity (PA) measured to EC100 of Carbachol, read-out: M3 FDSS PA %; for EC50: agonist mode, geometric mean if tested more than once, read-out: M3 FDSS EC50
T1 construct: expressed in transfected cells; host or cells: CHO-K1 (M3_CHO)
In short: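 Agonist-mode calcium mobilisation: compounds, 11 concentrations in triplicate, applied to stable M3_CHO or M5_CHO cells loaded with Ca++ dye, fluorescence followed 3 min. Efficacy expressed against carbachol EC100; EC curves by four-parameter nonlinear regression, geometric mean across independent runs.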

[2] = target: T2, human cloned CHRM2 receptor (Homo sapiens, UniProt P08172); assay: CHRM2 Ca++ Flux Assay (M2_CHO cells, agonist mode); format: cell-based; conditions: M2 CHO cells; for EC50: agonist mode, geometric mean if tested more than once, read-out: M2 FDSS EC50; for Emax: Percent Activity (PA) measured to EC100 of Carbachol, read-out: M2 FDSS PA %
T2 construct: expressed in transfected cells; host or cells: CHO-K1 (M2_CHO)
T2 sequence (P08172 1-466): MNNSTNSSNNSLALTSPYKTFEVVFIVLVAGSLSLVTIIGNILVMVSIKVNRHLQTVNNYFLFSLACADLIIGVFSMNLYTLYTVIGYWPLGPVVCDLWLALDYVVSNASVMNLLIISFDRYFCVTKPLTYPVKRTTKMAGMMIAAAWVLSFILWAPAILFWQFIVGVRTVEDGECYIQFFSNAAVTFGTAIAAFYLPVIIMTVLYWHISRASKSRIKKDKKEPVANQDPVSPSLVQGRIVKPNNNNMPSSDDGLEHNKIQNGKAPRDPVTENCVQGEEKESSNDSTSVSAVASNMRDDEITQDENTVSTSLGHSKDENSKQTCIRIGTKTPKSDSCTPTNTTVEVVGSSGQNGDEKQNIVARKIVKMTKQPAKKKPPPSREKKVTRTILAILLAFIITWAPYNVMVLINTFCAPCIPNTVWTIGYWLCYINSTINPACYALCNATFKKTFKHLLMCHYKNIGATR
In short: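 Agonist activity was expressed as percent of the carbachol EC100 response, fitted by four-parameter regression on triplicate wells, with geometric means across repeat runs. Calcium traces over 3 minutes came from dye-loaded M2_CHO cells (12K/well) pre-incubated 60 min in Ca/Mg-free HBSS with 20 mM HEPES, 2.5 mM probenecid and 20 μM ATP.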

T1 sequence (P20309 whole entry): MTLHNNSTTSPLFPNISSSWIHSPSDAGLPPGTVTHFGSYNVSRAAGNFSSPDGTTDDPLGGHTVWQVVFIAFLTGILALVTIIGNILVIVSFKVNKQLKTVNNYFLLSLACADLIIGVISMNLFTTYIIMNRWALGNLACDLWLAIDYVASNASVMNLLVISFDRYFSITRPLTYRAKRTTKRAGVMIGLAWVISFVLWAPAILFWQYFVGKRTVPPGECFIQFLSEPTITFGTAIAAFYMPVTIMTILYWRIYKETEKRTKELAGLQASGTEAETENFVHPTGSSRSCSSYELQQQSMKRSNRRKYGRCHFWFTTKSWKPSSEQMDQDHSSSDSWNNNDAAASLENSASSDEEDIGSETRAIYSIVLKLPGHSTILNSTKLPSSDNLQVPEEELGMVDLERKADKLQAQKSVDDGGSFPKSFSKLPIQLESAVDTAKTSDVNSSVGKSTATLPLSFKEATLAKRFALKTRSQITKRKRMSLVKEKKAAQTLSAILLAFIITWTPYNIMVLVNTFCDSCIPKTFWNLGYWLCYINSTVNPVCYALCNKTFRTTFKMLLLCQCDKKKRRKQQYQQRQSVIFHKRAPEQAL

## Cc1cc(COc2ccc(F)cc2C2CCN([C@@H]3COC4(C3)CN(c3nnco3)C4)CC2)on1 [Example 2G, (S)-7-(4-(5-fluoro-2-((3-methylisoxazol-5-yl)methoxy)phenyl)piperidin-1-yl)-2-(1,3,4-oxadiazol-2-yl)-5-oxa-2-azaspiro[3.4]octane]
[1]
  Emax: 0%
  EC50: > 25000 nM
[2]
  EC50: 61 nM
  Emax: 55%

## Fc1ccc(OCC2COC2)c(C2CCN([C@@H]3COC4(C3)CN(c3nnco3)C4)CC2)c1 [Example 2H, (S)-7-(4-(5-fluoro-2-(oxetan-3-ylmethoxy)phenyl)piperidin-1-yl)-2-(1,3,4-oxadiazol-2-yl)-5-oxa-2-azaspiro[3.4]octane]
[1]
  Emax: 0%
  EC50: > 25000 nM
[2]
  EC50: 309 nM
  Emax: 60%

## Fc1ccc(OCc2ncccn2)c(C2CCN([C@@H]3COC4(C3)CN(c3nnco3)C4)CC2)c1 [Example 2I, (S)-7-(4-(5-fluoro-2-(pyrimidin-2-ylmethoxy)phenyl)piperidin-1-yl)-2-(1,3,4-oxadiazol-2-yl)-5-oxa-2-azaspiro[3.4]octane]
[1]
  Emax: 0%
  EC50: > 25000 nM
[2]
  EC50: 109 nM
  Emax: 35%

## Fc1ccc(OCC2(F)COC2)c(C2CCN([C@@H]3COC4(C3)CN(c3nnco3)C4)CC2)c1 [Example 2J, (S)-7-(4-(5-fluoro-2-((3-fluorooxetan-3-yl)methoxy)phenyl)piperidin-1-yl)-2-(1,3,4-oxadiazol-2-yl)-5-oxa-2-azaspiro[3.4]octane]
[1]
  Emax: 0%
  EC50: > 25000 nM
[2]
  EC50: 214 nM
  Emax: 62%

## CC1(COc2ccc(F)cc2C2CCN([C@@H]3COC4(C3)CN(c3nnco3)C4)CC2)COC1 [Example 2K, (S)-7-(4-(5-fluoro-2-((3-methyloxetan-3-yl)methoxy)phenyl)piperidin-1-yl)-2-(1,3,4-oxadiazol-2-yl)-5-oxa-2-azaspiro[3.4]octane]
[1]
  Emax: 0%
  EC50: > 25000 nM
[2]
  EC50: 498 nM
  Emax: 47%

## Fc1ccc(OC2CC3(COC3)C2)c(C2CCN([C@@H]3COC4(C3)CN(c3nnco3)C4)CC2)c1 [Example 2L, (S)-7-(4-(2-((2-oxaspiro[3.3]heptan-6-yl)oxy)-5-fluorophenyl)piperidin-1-yl)-2-(1,3,4-oxadiazol-2-yl)-5-oxa-2-azaspiro[3.4]octane]
[1]
  Emax: 0%
  EC50: > 25000 nM
[2]
  EC50: 1070 nM
  Emax: 14%

## Fc1ccc(OC[C@H]2CCCO2)c(C2CCN([C@@H]3COC4(C3)CN(c3nnco3)C4)CC2)c1 [Example 2M, (S)-7-(4-(5-fluoro-2-(((R)-tetrahydrofuran-2-yl)methoxy)phenyl)piperidin-1-yl)-2-(1,3,4-oxadiazol-2-yl)-5-oxa-2-azaspiro[3.4]octane]
[1]
  Emax: 0%
  EC50: > 25000 nM
[2]
  EC50: 2030 nM
  Emax: 20%

## CCC1(COc2ccc(F)cc2C2CCN([C@@H]3COC4(C3)CN(c3nnco3)C4)CC2)COC1 [Example 2P, (S)-7-(4-(2-((3-ethyloxetan-3-yl)methoxy)-5-fluorophenyl)piperidin-1-yl)-2-(1,3,4-oxadiazol-2-yl)-5-oxa-2-azaspiro[3.4]octane]
[1]
  Emax: 0%
  EC50: > 25000 nM
[2]
  EC50: 1070 nM
  Emax: 36%

## Fc1ccc(OCC2CC3(COC3)C2)c(C2CCN([C@@H]3COC4(C3)CN(c3nnco3)C4)CC2)c1 [Example 2S, (S)-7-(4-(2-((2-oxaspiro[3.3]heptan-6-yl)methoxy)-5-fluorophenyl)piperidin-1-yl)-2-(1,3,4-oxadiazol-2-yl)-5-oxa-2-azaspiro[3.4]octane]
[1]
  Emax: 0%
  EC50: > 25000 nM
[2]
  EC50: 2180 nM
  Emax: 29%

## CCc1nnc(COc2ccc(F)cc2C2CCN([C@@H]3COC4(C3)CN(c3nnco3)C4)CC2)s1 [Example 2T, (S)-7-(4-(2-((5-ethyl-1,3,4-thiadiazol-2-yl)methoxy)-5-fluorophenyl)piperidin-1-yl)-2-(1,3,4-oxadiazol-2-yl)-5-oxa-2-azaspiro[3.4]octane]
[1]
  Emax: 0%
  EC50: > 25000 nM
[2]
  EC50: 41 nM
  Emax: 44%

## OC1(COc2ccc(F)cc2C2CCN([C@@H]3COC4(C3)CN(c3nnco3)C4)CC2)COC1 [Example 2U, (S)-3-((2-(1-(2-(1,3,4-oxadiazol-2-yl)-5-oxa-2-azaspiro[3.4]octan-7-yl)piperidin-4-yl)-4-fluorophenoxy)methyl)oxetan-3-ol]
[1]
  Emax: 0%
  EC50: > 25000 nM
[2]
  EC50: 275 nM
  Emax: 51%

## CC(C)(O)CCOc1cc(F)ccc1C1CCN([C@@H]2COC3(C2)CN(c2nncs2)C3)CC1 [Example 5V, (S)-4-(2-(1-(2-(1,3,4-thiadiazol-2-yl)-5-oxa-2-azaspiro[3.4]octan-7-yl)piperidin-4-yl)-5-fluorophenoxy)-2-methylbutan-2-ol]
[1]
  Emax: 0%
  EC50: > 25000 nM
[2]
  EC50: > 25000 nM
  Emax: 0%

## Fc1ccc(OC2CC3(COC3)C2)c(C2CCN([C@@H]3COC4(C3)CN(c3nncs3)C4)CC2)c1 [Example 5W, (S)-7-(4-(2-((2-oxaspiro[3.3]heptan-6-yl)oxy)-5-fluorophenyl)piperidin-1-yl)-2-(1,3,4-thiadiazol-2-yl)-5-oxa-2-azaspiro[3.4]octane]
[1]
  Emax: 0%
  EC50: > 25000 nM
[2]
  EC50: 20700 nM
  Emax: 30%

## Fc1ccc(OC[C@H]2CCOC2)c(C2CCN([C@@H]3COC4(C3)CN(c3nncs3)C4)CC2)c1 [Example 5X, (S)-7-(4-(5-fluoro-2-(((S)-tetrahydrofuran-3-yl)methoxy)phenyl)piperidin-1-yl)-2-(1,3,4-thiadiazol-2-yl)-5-oxa-2-azaspiro[3.4]octane]
[1]
  Emax: 0%
  EC50: > 25000 nM
[2]
  EC50: 1420 nM
  Emax: 43%

## CC(C)(O)COc1ccccc1C1CCN([C@@H]2COC3(C2)CN(c2ncns2)C3)CC1 [Example 5Y, (S)-1-(2-(1-(2-(1,2,4-thiadiazol-5-yl)-5-oxa-2-azaspiro[3.4]octan-7-yl)piperidin-4-yl)phenoxy)-2-methylpropan-2-ol]
[1]
  Emax: 0%
  EC50: > 25000 nM
[2]
  EC50: > 25000 nM
  Emax: 0%

## Fc1ccc(OC2CCOCC2)c(C2CCN([C@@H]3COC4(C3)CN(c3ncon3)C4)CC2)c1 [Example 6A, (S)-7-(4-(5-fluoro-2-((tetrahydro-2H-pyran-4-yl)oxy)phenyl)piperidin-1-yl)-2-(1,2,4-oxadiazol-3-yl)-5-oxa-2-azaspiro[3.4]octane]
[1]
  Emax: 0%
  EC50: > 25000 nM
[2]
  EC50: 623 nM
  Emax: 18%

## Fc1ccc(OC2COC2)c(C2CCN([C@@H]3COC4(C3)CN(c3ncon3)C4)CC2)c1 [Example 6B, (S)-7-(4-(5-fluoro-2-(oxetan-3-yloxy)phenyl)piperidin-1-yl)-2-(1,2,4-oxadiazol-3-yl)-5-oxa-2-azaspiro[3.4]octane]
[1]
  Emax: 0%
  EC50: > 25000 nM
[2]
  EC50: 390 nM
  Emax: 38%

## Fc1ccc(OC2CC3(COC3)C2)c(C2CCN([C@@H]3COC4(C3)CN(c3ncon3)C4)CC2)c1 [Example 6C, (S)-7-(4-(2-((2-oxaspiro[3.3]heptan-6-yl)oxy)-5-fluorophenyl)piperidin-1-yl)-2-(1,2,4-oxadiazol-3-yl)-5-oxa-2-azaspiro[3.4]octane]
[1]
  Emax: 0%
  EC50: > 25000 nM
[2]
  EC50: 1510 nM
  Emax: 18%

## Fc1ccc(OC2CC3(COC3)C2)c(C2CCN([C@H]3COC4(C3)CN(c3nnco3)C4)CC2)c1 [Example 7A, (R)-7-(4-(2-((2-oxaspiro[3.3]heptan-6-yl)oxy)-5-fluorophenyl)piperidin-1-yl)-2-(1,3,4-oxadiazol-2-yl)-5-oxa-2-azaspiro[3.4]octane]
[1]
  Emax: 0%
  EC50: > 25000 nM
[2]
  EC50: > 25000 nM
  Emax: 0%
